Our source for the GI50 and TGI values is PubChem BioAssay (NCI).

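How tested: cells in 96-well plates exposed to compound for 48 hours at five concentrations. Here, GI50 denotes the concentration required for 50% inhibition of growth. The concentration for full growth arrest is given as TGI.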

Some test systems named below: DU-145 prostate; MOLT-4 leukemia; SW-620 colon; SF-268 CNS; HOP-92 NSCLC; TK-10 renal; RXF 393 renal; U251 CNS; NCI-H460 lung; K-562 leukemia.
Test in all cases: NCI-60 cell line screen, 48 h

Take `Oc1ccc2ccccc2c1C=NCCCN=Cc1c(O)ccc2ccccc12`: the GI50 with DU-145 prostate is 35.3 µM; in the assay with MOLT-4 leukemia, 10.3 µM; in the assay with SW-620 colon it was 12.1 µM; with SF-268 CNS it was 16.3 µM; in the assay with HOP-92 NSCLC, 8.93 µM; with TK-10 renal it was 24.4 µM. In addition, the results for the GI50 with RXF 393 renal, with U251 CNS and in the assay on NCI-H460 lung were 21.8 µM, 3.8 µM and 9.35 µM, respectively. Also, the TGI in the assay on DU-145 prostate was more than 100 µM; with MOLT-4 leukemia it was 56.9 µM; with SW-620 colon, 61.8 µM; with SF-268 CNS it was more than 100 µM; in the assay on HOP-92 NSCLC, 59.9 µM; in the assay on TK-10 renal it was more than 100 µM. In addition, the values for the TGI in the assay on RXF 393 renal, in the assay with U251 CNS and in the assay on NCI-H460 lung were 86.2 µM, 15.2 µM and more than 100 µM, respectively.
Take `O=C(Nc1ccc(-c2nc3cc4ccccc4cc3[nH]2)cc1)c1cccc(Br)c1`: the GI50 is 3.03 µM in the assay on DU-145 prostate; 27.6 µM in the assay on MOLT-4 leukemia; 3.09 µM in the assay with SW-620 colon; 9.22 µM with SF-268 CNS; 4 µM with HOP-92 NSCLC; 4 µM with TK-10 renal. Besides, the GI50 in the assay with RXF 393 renal is 1.9 µM; in the assay with U251 CNS, 5.23 µM; with NCI-H460 lung, 3.36 µM. Moreover, the TGI with DU-145 prostate is 19.1 µM; in the assay on MOLT-4 leukemia it was more than 100 µM; in the assay with SW-620 colon, 12.8 µM; in the assay on SF-268 CNS, 26.8 µM; in the assay on HOP-92 NSCLC it was 17.8 µM; in the assay on TK-10 renal, 11.3 µM. The TGI was found to be 8.28 µM in the assay with RXF 393 renal, 19 µM in the assay on U251 CNS and 13 µM in the assay with NCI-H460 lung.
In the case of `COc1ccc(-c2ccc(C3CC(c4ccc(O)cc4)=NN3)o2)c([N+](=O)[O-])c1` (stereo not given), the GI50 in the assay on DU-145 prostate is 29.4 µM; in the assay on MOLT-4 leukemia, 5.14 µM; in the assay with SW-620 colon, 37.3 µM; in the assay with SF-268 CNS it was 22.3 µM; with K-562 leukemia, 13.9 µM; in the assay with TK-10 renal, 40.1 µM. In addition, the values for the GI50 with RXF 393 renal, in the assay with U251 CNS and in the assay with NCI-H460 lung were 23.7 µM, 19 µM and 21.1 µM, respectively. Also, the TGI in the assay on DU-145 prostate was more than 100 µM; in the assay with MOLT-4 leukemia, 29.9 µM; with SW-620 colon it was more than 100 µM; with SF-268 CNS, more than 100 µM; in the assay with K-562 leukemia it was 36.3 µM; in the assay with TK-10 renal it was more than 100 µM. In addition, the values for the TGI in the assay on RXF 393 renal, in the assay on U251 CNS and with NCI-H460 lung were more than 100 µM, more than 100 µM and 81.8 µM, respectively.
As for `CC1=C(C)C(=O)c2c(c(C(=O)c3ccccc3)c3nc4ccccc4n3c2C)C1=O`, the GI50 in the assay on DU-145 prostate was 63.5 µM; with MOLT-4 leukemia it was more than 100 µM; in the assay on SW-620 colon, more than 100 µM; in the assay with SF-268 CNS, 28.6 µM; in the assay with K-562 leukemia, more than 100 µM; in the assay on HOP-92 NSCLC, 26 µM. Further, the GI50 was 59.5 µM in the assay on TK-10 renal, 27.5 µM with U251 CNS and 63.3 µM in the assay with NCI-H460 lung. Moreover, the TGI was more than 100 µM with DU-145 prostate; more than 100 µM in the assay with MOLT-4 leukemia; more than 100 µM in the assay with SW-620 colon; more than 100 µM with SF-268 CNS; more than 100 µM in the assay with K-562 leukemia; 87.3 µM in the assay on HOP-92 NSCLC. The TGI is more than 100 µM with TK-10 renal, 79.4 µM with U251 CNS and more than 100 µM with NCI-H460 lung.
With `C=C1C(=O)O[C@@H]2C[C@@H]1CC[C@]1(C)O[C@H]1CC[C@@]1(C)O[C@@H]1CC[C@@]2(C)O`, the GI50 in the assay with DU-145 prostate is 35 µM; in the assay on MOLT-4 leukemia it was 13.5 µM; with SW-620 colon it was 29.2 µM; in the assay on SF-268 CNS, more than 100 µM; in the assay on K-562 leukemia, 19.5 µM; in the assay on TK-10 renal it was 39.4 µM. Further, the GI50 in the assay with RXF 393 renal is 55.9 µM; in the assay on U251 CNS, 42.8 µM; in the assay with NCI-H460 lung, more than 100 µM. For the same compound, the TGI in the assay on DU-145 prostate is more than 100 µM; with MOLT-4 leukemia it was 36.7 µM; in the assay on SW-620 colon it was more than 100 µM; in the assay on SF-268 CNS, more than 100 µM; in the assay on K-562 leukemia, more than 100 µM; in the assay on TK-10 renal, more than 100 µM. The TGI in the assay on RXF 393 renal, in the assay with U251 CNS and in the assay with NCI-H460 lung was more than 100 µM in each case.
Turning to `Cn1ncc(=S)[nH]c1=S`, the TGI with MOLT-4 leukemia, in the assay with SW-620 colon, in the assay with SF-268 CNS, in the assay with K-562 leukemia, with HOP-92 NSCLC and with TK-10 renal was more than 100 µM in each case. Further, the TGI in the assay with RXF 393 renal, with U251 CNS and with NCI-H460 lung was more than 100 µM each time.
Take `O=P(c1ccccc1)(c1ccccc1)C1CC=C(c2ccccc2)C2(CCCC2)C1` (stereo not given): the TGI is 53.1 µM in the assay on MOLT-4 leukemia; more than 100 µM in the assay with SW-620 colon; more than 100 µM in the assay with SF-268 CNS; more than 100 µM with K-562 leukemia; 67.5 µM in the assay with HOP-92 NSCLC; more than 100 µM with TK-10 renal. Besides, the TGI with RXF 393 renal, in the assay on U251 CNS and in the assay on NCI-H460 lung was more than 100 µM throughout.
Consider `COc1ccc2[nH]cc(CCNC(C)=O)c2c1`, for which the TGI in the assay on MOLT-4 leukemia is more than 100 µM; in the assay with SW-620 colon, 24.1 µM; in the assay with SF-268 CNS, more than 100 µM; in the assay with K-562 leukemia, more than 100 µM; in the assay with HOP-92 NSCLC, more than 100 µM; with TK-10 renal, more than 100 µM. The TGI in the assay on RXF 393 renal, with U251 CNS and in the assay with NCI-H460 lung was more than 100 µM throughout.
For `CSC(=S)c1ccc(C(=S)SC)cc1`, the TGI in the assay with MOLT-4 leukemia, with SW-620 colon, in the assay on SF-268 CNS, in the assay on K-562 leukemia, in the assay on HOP-92 NSCLC and with TK-10 renal was more than 100 µM throughout. For the same compound, the TGI with RXF 393 renal, in the assay on U251 CNS and with NCI-H460 lung was more than 100 µM in each case.
Turning to `O=C(Nc1ccc(Cl)c(C(F)(F)F)c1)C(=O)C(C(=O)/C=C/c1ccccc1)C1OC(=O)c2ccccc21` (stereo not given), the TGI in the assay on MOLT-4 leukemia, in the assay with SW-620 colon, in the assay with SF-268 CNS, in the assay with K-562 leukemia, in the assay with HOP-92 NSCLC and with TK-10 renal was more than 100 µM throughout. In addition, the TGI with RXF 393 renal, in the assay with U251 CNS and with NCI-H460 lung was more than 100 µM in each case.
